Measured values taken from patent US9540361B2, “N-substituted azetidine derivatives” (Merck Sharp & Dohme B.V., priority 2010, dated 2017).
Marks after values point to notes of the source that are not given here.

Assays:
[1] = biological target: T1, human estrogen receptor α (hERα) (Homo sapiens, UniProt P03372); test: antagonistic activity in CHO cells co-transfected with hERα, rat oxytocin promoter and luciferase reporter gene; assay type: cell-based; conditions: antagonism of 17β-estradiol-induced transactivation, CHO-hERα-RO-LUC; read-out: ERα pIC50 (converted)
T1 sequence (P03372 1-595): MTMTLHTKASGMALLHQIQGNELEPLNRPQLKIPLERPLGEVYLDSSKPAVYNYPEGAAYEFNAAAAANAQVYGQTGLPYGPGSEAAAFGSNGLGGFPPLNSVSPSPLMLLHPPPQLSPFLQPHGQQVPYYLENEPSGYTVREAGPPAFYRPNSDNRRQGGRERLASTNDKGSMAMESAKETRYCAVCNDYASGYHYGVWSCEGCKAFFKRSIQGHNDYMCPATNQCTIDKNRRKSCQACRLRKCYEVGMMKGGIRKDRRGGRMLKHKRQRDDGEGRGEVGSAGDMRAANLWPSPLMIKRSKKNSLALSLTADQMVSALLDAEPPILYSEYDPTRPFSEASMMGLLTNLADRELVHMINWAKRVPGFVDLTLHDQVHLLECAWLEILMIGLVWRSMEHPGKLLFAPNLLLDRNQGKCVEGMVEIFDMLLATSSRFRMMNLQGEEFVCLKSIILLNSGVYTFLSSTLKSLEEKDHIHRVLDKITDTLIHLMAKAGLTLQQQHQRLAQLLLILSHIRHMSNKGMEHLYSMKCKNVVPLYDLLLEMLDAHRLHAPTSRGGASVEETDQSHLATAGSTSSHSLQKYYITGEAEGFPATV
Description: The antagonistic activity of compounds on the estrogen receptors was determined in an in vitro bioassay with recombinant Chinese Hamster Ovary (CHO) cells stably co-transfected with the human estrogen receptor α (hERα), the rat oxytocin promoter (RO) and the luciferase reporter gene (LUC). […] The antagonistic efficacy, i.e. the amount of maximal inhibition of the 17β-estradiol activated receptor by a compound, is expressed as fraction relative to the maximal inhibition as induced by the standard anti-estrogen ICI 164,384 (efficacy test compound=(maximal inhibition test compound/maximal inhibition ICI 164,384)). A more detailed description of the methodology can be found in De Gooyer et al., Steroids, 68 (2003) 21-30.

estrogen receptor alpha = biological target: T2, estrogen receptor alpha (Homo sapiens, UniProt P03372); test: ERα downregulation assay in T47D breast cancer cells (ERα ELISA); assay type: cell-based; conditions: downregulation of ERα relative to fulvestrant (100%), 1E-5 M, 24 hours, negative = upregulation
T2 construct: endogenous in cells; host or cells: T47D human breast cancer cells (ATCC)
T2 sequence (P03372 1-595): T1 sequence (P03372 1-595)
Text: More specifically, this in vitro bioassay is used to determine the efficacy (fraction of maximal response) of the compound by comparing the data for this compound with those of the reference compound ICI 182,780 (fulvestrant) in the same test (downregulation of fulvestrant is 100% by definition).
A more detailed description of the method used is as follows.
Cell culture. The human epithelial breast cancer cell line T47D (origin: ATCC) was routinely maintained in a 1:1 mixture of Ham's F12 medium and Dulbecco's Modified Eagle Medium (Gibco) enriched with 5% fetal calf serum (Hyclone), 10 mM HEPES pH 7.5 and 100 μg/ml penicillin-streptomycin solution. Cells were grown in 80 cm2 culture flasks (Nunc, Roskilde, Denmark) and kept in an atmosphere of 5% CO2-95% air at 37 degrees Celsius. Cells were subcultured when they reached about 80-90% confluence, resulting in one passage a week. Subculturing includes detaching the cells using Cell Dissociation Buffer [Sigma] and subsequent inoculation at 1:5 or 1:10 in a new Roux flask (175 cc) and\or plating out in Nunclon™ Surface 96 wells microplates. The culture medium needs to be refreshed on day three or four of the incubation, if applicable.
Determination of ERα protein levels: T47D cells in the microplates are incubated with 1E-5 M test compound for 24 hours. The supernatant in all wells is carefully aspirated. Cells are lysed on the microplate and cell lysates are probed for ERα content using an ERα ELISA assay kit (Active Motif).

Row | Structure (SMILES) | IC50 [1] [nM] | DR (%) (estrogen receptor alpha)
1 | CCCN1CC(Oc2ccc(C(=O)c3c(-c4ccccc4Cl)noc3-c3cccc(O)c3)cc2)C1.Cl [compound 7ap, (3-(2-chlorophenyl)-5-(3-hydroxyphenyl)isoxazol-4-yl)(4-(1-propylazetidin-3-yloxy)phenyl)methanone hydrochloride] | 2 | 90%
2 | CCCN1CC(Oc2ccc(Oc3c(-c4ccc(O)cc4)sc4cc(O)ccc34)cc2)C1.O=C(O)C(F)(F)F [compound 6c, 2-(4-hydroxyphenyl)-3-(4-(1-propylazetidin-3-yloxy)phenoxy)benzo[b]thiophen-6-ol 2,2,2-trifluoroacetate] | 0.251 | 7 ^(c) %
3 | CCCN1CC(Oc2ccc(C(=O)c3c(-c4ccccc4Cl)noc3-c3cccc4[nH]ncc34)cc2)C1.O=C(O)C(F)(F)F [compound 7as, (3-(2-chlorophenyl)-5-(1H-indazol-4-yl)isoxazol-4-yl)(4-(1-propylazetidin-3-yl-oxy)phenyl)methanone 2,2,2-trifluoroacetate] | 39.8 | 55%
4 | CCCN1CC(Oc2ccc([C@H]3c4ccc(OC)cc4OC(C)(C)[C@@H]3c3ccccc3)cc2)C1.O=C(O)C(F)(F)F [compound 6o, 3-(4-((3S,4S)-7-methoxy-2,2-dimethyl-3-phenylchroman-4-yl)phenoxy)-1-propylazetidine 2,2,2-trifluoroacetate] | 25.1 | 75%
5 | CCCN1CC(Oc2ccc(-c3c(-c4c(C)cccc4Cl)noc3-c3ccc(O)cc3)cc2)C1.O=C(O)C(F)(F)F [compound 7ab, 4-(3-(2-chloro-6-methylphenyl)-4-(4-(1-propylazetidin-3-yloxy)phenyl)isoxazol-5-yl)phenol 2,2,2-trifluoroacetate] | 0.398 | 86%
6 | O=C(O)C(F)(F)F.O=C(c1ccc(OC2CN(C3CC3)C2)cc1)c1c(-c2ccc(O)cc2)sc2cc(O)ccc12 [compound 7i, (4-(1-cyclopropylazetidin-3-yloxy)phenyl)(6-hydroxy-2-(4-hydroxyphenyl)-benzo[b]thiophen-3-yl)methanone 2,2,2-trifluoroacetate] | 2.51 | 66%
7 | CCCN1CC(Oc2ccc(C(=C(Cl)c3ccccc3)c3ccccc3)cc2)C1 (mixture of isomers) [compound 6x, (E/Z)-3-(4-(2-chloro-1,2-diphenylvinyl)phenoxy)-1-propylazetidine 2,2,2-trifluoroacetate] | 7.94 | 63%
8 | CCCN1CC(Oc2ccc(C(=O)c3c(-c4ccc(O)cc4)noc3-c3ccccc3Cl)cc2)C1 [compound 6n, (5-(2-chlorophenyl)-3-(4-hydroxyphenyl)isoxazol-4-yl)(4-(1-propylazetidin-3-yloxy)phenyl)methanone] | 3.98 | 62%
9 | CCCN1CC(Oc2ccc(C(=O)c3c(-c4ccccc4)sc4cc(O)ccc34)cc2)C1.Cl [compound 7e, (6-hydroxy-2-phenylbenzo[b]thiophen-3-yl)(4-(1-propylazetidin-3-yloxy)-phenyl)methanone hydrochloride] | 2 | 96%
10 | CCCN1CC(Oc2ccc(-c3c(-c4snnc4C)noc3-c3ccc(O)cc3)cc2)C1.Cl [compound 7ae, 4-(3-(4-methyl-1,2,3-thiadiazol-5-yl)-4-(4-(1-propylazetidin-3-yloxy)phenyl)isoxazol-5-yl)phenol hydrochloride] | 12.6 | 99%
11 | CCCN1CC(Oc2ccc(C(=O)c3c(-c4cccc(O)c4)noc3-c3ccccc3F)cc2)C1.Cl [compound 7ba, (5-(2-fluorophenyl)-3-(3-hydroxyphenyl)isoxazol-4-yl)(4-(1-propylazetidin-3-yloxy)phenyl)methanone hydrochloride] | 15.8 | 51%
12 | CCCN1CC(Oc2ccc(-c3c(-c4c(C)noc4C)noc3-c3ccc(O)cc3)cc2)C1.Cl [compound 7af, 4-(3′,5′-dimethyl-4-(4-(1-propylazetidin-3-yloxy)phenyl)-3,4′-biisoxazol-5-yl)-phenol hydrochloride] | 3.16 | 92%
13 | CN1CC(Oc2ccc(C(=O)c3c(-c4ccc(O)cc4)sc4cc(O)ccc34)cc2)C1.Cl [compound 7d, (6-hydroxy-2-(4-hydroxyphenyl)benzo[b]thiophen-3-yl)(4-(1-methylazetidin-3-yloxy)phenyl)methanone hydrochloride] | 2 | 48%
14 | CCCN1CC(Oc2ccc(C(OC)c3c(-c4ccccc4Cl)noc3-c3ccc(O)cc3)cc2)C1 (centres unmarked) [compound 7aw, 4-(3-(2-chlorophenyl)-4-(methoxy(4-(1-propylazetidin-3-yloxy)phenyl)methyl)-isoxazol-5-yl)phenol] | 7.94 | 64%
15 | CCCN1CC(Oc2ccc(C(=O)c3c(-c4ccccc4)noc3-c3ccc(O)cc3)cc2)C1.Cl [compound 7ai, (5-(4-hydroxyphenyl)-3-phenylisoxazol-4-yl)(4-(1-propylazetidin-3-yloxy)-phenyl)methanone hydrochloride] | 7.94 | 96%

Next, values leading:

Row | IC50 [1] [nM] | DR (%) (estrogen receptor alpha) | Structure (SMILES)
16 | 5.01 | 35% | Cl.O=C(c1ccc(OC2CN(CCC(F)(F)F)C2)cc1)c1c(-c2ccc(O)cc2)sc2cc(O)ccc12 [compound 7p, (6-hydroxy-2-(4-hydroxyphenyl)benzo[b]thiophen-3-yl)(4-(1-(3,3,3-trifluoropropyl)azetidin-3-yloxy)phenyl)methanone hydrochloride]
17 | 5.01 | 73% | Cl.O=C(c1ccc(OC2CN(CC3CCOC3)C2)cc1)c1c(-c2ccc(O)cc2)sc2cc(O)ccc12 (centres unmarked) [compound 7o, (6-hydroxy-2-(4-hydroxyphenyl)benzo[b]thiophen-3-yl)(4-(1-((tetrahydrofuran-3-yl)methyl)azetidin-3-yloxy)phenyl)methanone hydrochloride]
18 | 1 | 73% | CC(C)CN1CC(Oc2ccc(C(=O)c3c(-c4ccc(O)cc4)sc4cc(O)ccc34)cc2)C1.Cl [compound 7m, (6-hydroxy-2-(4-hydroxyphenyl)benzo[b]thiophen-3-yl)(4-(1-isobutylazetidin-3-yloxy)phenyl)methanone hydrochloride]
19 | 0.794 | 78% | CCCN1CC(Oc2ccc(C(=O)c3c(-c4ccc(O)cc4)sc4cc(O)ccc34)cc2F)C1.Cl [compound 7u, (3-fluoro-4-(1-propylazetidin-3-yloxy)phenyl)(6-hydroxy-2-(4-hydroxyphenyl)-benzo[b]thiophen-3-yl)methanone hydrochloride]
20 | 1.26 | 64% | CCCN1CC(Oc2ccc(C(=O)c3c(-c4ccc(O)cc4C)sc4cc(O)ccc34)cc2)C1.Cl [compound 7q, (6-hydroxy-2-(4-hydroxy-2-methylphenyl)benzo[b]thiophen-3-yl)(4-(1-propylazetidin-3-yloxy)phenyl)methanone hydrochloride]
21 | 5.01 | 101% | CCCN1CC(Oc2ccc(C(=O)c3c(-c4ccc(F)c(C)c4)sc4cc(O)ccc34)cc2)C1.Cl [compound 7s, (2-(4-fluoro-3-methylphenyl)-6-hydroxybenzo[b]thiophen-3-yl)(4-(1-propylazetidin-3-yloxy)phenyl)methanone hydrochloride]
22 | 2 | 98% | CCCN1CC(Oc2ccc(C(=O)c3c(-c4cc(F)cc(F)c4)sc4cc(O)ccc34)cc2)C1.Cl [compound 7t, (2-(3,5-difluorophenyl)-6-hydroxybenzo[b]thiophen-3-yl)(4-(1-propylazetidin-3-yloxy)phenyl)methanone hydrochloride]
